US20140031324A1, “COMPOUND COMPOSITION FOR INHALATION USED FOR TREATING ASTHMA” (Intech Biopharm Ltd., priority 2010, published 2014)

How the values were obtained:
OVA-sensitized mice = experiment: Albumin (OVA)-induced asthma model in mice; methacholine-induced tracheal contraction (airway hyperresponsiveness, FlexiVent); type: in vivo, Balb/c mice; details: single super high dose, alone or in combination, intratracheal, FIGS. 2 to 4
Description: An albumin-inducing asthma model in mice was used to conduct related tests. In accordance with the control group and the experimental group, the mice were divided into the different groups to conduct the experiment. The control group includes a normal control group which none sensitized mice are given saline (no drug), and an asthma control group which sensitized mice are treated with vehicle. The experimental group is divided into sub-group according to different methods of administering drugs. Respectively, such as the group which is using different dosage and different frequency of the beta2-agonist alone and the group which is using different dosage and different frequency of the pharmaceutical combination of the beta2-agonist with the corticosteroid.
The mice which are for sensitization all experience three times of the peritoneal albumin (OVA) injection with ten-day intervals in advance, on the 24th day, collect the blood sample and exam the IgE to confirm allergy. Then, on the 26th day, albumin was administered in the nasal cavities of the mice. And, from the 30th day, the intratracheal administration is divided into groups of once time dosing and seven-day dosing which is further divided into once or twice daily groups. After the last dose, perform a tracheotomy and intubation and use instruments collect the data of that Methacholine (MCh), induces tracheal contraction. […]

[1] = long acting beta-2 agonists (LABA); cited from earlier work

Structure (SMILES)	acute drug tolerance (ability of trachea relaxing) (OVA-sensitized mice)	duration of action [1]
CCC(NC(C)C)C(O)c1ccc(O)c2[nH]c(=O)ccc12 (stereo not drawn) [Procaterol]	acute drug tolerance phenomenon of reducing the ability of trachea relaxing	–
OCc1cc(C(O)CNCCCCCCOCCCCc2ccccc2)ccc1O (stereo not drawn) [Salmeterol, Salmeterol Xinafoate]	acute drug tolerance phenomenon of reducing the ability of trachea relaxing	up to twelve
